Experiment in all cases: growth of human tumour cells (NCI), 48 h
Assay [1] relates to HCT-116 colon.
Assay [2] concerns HL-60(TB) leukemia.
Assay [3] has as its system LOX IMVI melanoma.
The test system of assay [4] is NCI-H23 lung.
Assay [5] relates to OVCAR-5 ovarian.
The test system of assay [6] is SF-268 CNS.
For assay [7], the system named is SF-539 CNS.
Assay [8] relates to U251 CNS.
The subject of assay [9] is MCF7 breast.
The subject of assay [10] is MDA-MB-435.

This note sets out measurements from PubChem BioAssay (NCI).

The structures appear in SMILES notation.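 Growth conditions: 96-well plates. Treatment: test compound, 48 hours, 5 concentrations. Analysis: linear interpolation between bracketing concentrations; unreached endpoints set to highest concentration. Here, GI50 denotes the concentration required for 50% inhibition of growth. TGI denotes the concentration required for complete inhibition of growth.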 Where only a bound is given, the exact number is not on record here.

Consider `COc1ccc(-c2cc(C(=O)Nc3cccc(C(F)(F)F)c3)[nH]c(=S)n2)cc1`, for which the TGI in [1], in [2], in [3], in assay [4], in [5] and in assay [6] was more than 100 µM throughout. Further, the TGI in assay [7] and in assay [8] was more than 100 µM each time.
`COc1ccc(CNc2cc(OC)cc(OC)c2)cc1`: the TGI in assay [1], in assay [2], in assay [3], in [4], in assay [5] and in [6] was more than 100 µM in each case. Also, the TGI in [7] and in [8] was more than 100 µM throughout. Moreover, the GI50 is more than 78.1 µM in [5] and more than 90.2 µM in [7].
`O=CC1=CCCC2(C1)OCCO2`: the TGI in [1], in assay [2], in [3], in [4], in assay [6] and in assay [7] was more than 100 µM each time. The compound also came in with a TGI in [8] of more than 100 µM.
As to `CC(=O)O[C@]1(C(C)=O)CC[C@H]2[C@@H]3C[C@H](C)C4=CC(=O)C=C[C@]4(C)[C@@]3(F)[C@@H](O)C[C@@]21C`, the TGI in assay [1], in assay [2], in [3], in assay [4], in assay [5] and in assay [6] was more than 100 µM in each case. Further, the TGI in [7] and in assay [8] was more than 100 µM in each case.
For `Cc1nc2sc(C(=O)Nc3cccc4ccccc34)c(N)c2cc1C(C)O` (stereo unspecified), the GI50 was 0.233 µM in assay [1]; 0.124 µM in assay [2]; 0.264 µM in [3]; 0.17 µM in assay [9]; 0.394 µM in assay [4]; 1.5 µM in [5]. Further, the GI50 in assay [6] was 0.367 µM; in assay [7], 0.155 µM; in assay [8] it was 0.227 µM. In addition, the TGI in assay [1] is more than 50 µM; in assay [2], 0.355 µM; in assay [3], more than 50 µM; in assay [9], more than 50 µM; in assay [4], more than 50 µM; in [5], more than 50 µM. In addition, the TGI in assay [6] was more than 50 µM; in assay [7], 0.968 µM; in [8] it was more than 50 µM.
As to `CC(C)(C)c1nc2c(o1)C(=Nc1ccccc1)c1ccccc1C2=O`, the TGI in assay [1] worked out at 12.8 µM; in [2], 16.6 µM; in [3], 4.14 µM; in [4], 5.29 µM; in assay [5], 29.4 µM; in assay [6], 21 µM. In addition, the TGI in [7] was 8.5 µM; in assay [8], 14 µM.
Consider `N=C(N)/N=C(/C=C/c1ccccc1)CC1OC(=O)c2ccccc21` (stereo unspecified), for which the TGI in assay [1], in assay [2], in [3], in assay [6], in assay [7] and in assay [8] was more than 100 µM in each case.
On to `CCOC(C)OCC#CCCBr` (stereo unspecified), for which the TGI in [1], in assay [2], in assay [3], in [4], in [5] and in assay [6] was more than 100 µM each time. The TGI in [7] and in [8] was more than 100 µM each time.
With `OCC(O)CC[CH2][Sn]([c]1ccccc1)([c]1ccccc1)[c]1ccccc1` (stereo unspecified), the GI50 in assay [1] was 10.8 µM; in assay [2], 11.3 µM; in assay [3], 14.9 µM; in [4] it was 15.1 µM; in assay [5], 14.9 µM; in assay [7], 17.2 µM. Besides, the GI50 in assay [8] is 15.6 µM. The TGI in [1] was found to be 22.7 µM; in assay [2] it was 35.3 µM; in assay [3] it was 30.7 µM; in [4] it was 29.8 µM; in assay [5], 28.3 µM; in assay [7] it was 32.5 µM. This compound also yielded a TGI in [8] of 30.2 µM.
Turning to `O=S(=O)(Nc1ccc(-c2nc(-c3cccc(OCCN4CCOCC4)c3)c(-c3ccnc(Br)c3)[nH]2)cc1)c1ccccc1`, the GI50 in assay [1] was 3.09 µM; in assay [3], 1.62 µM; in [9], 2.16 µM; in assay [10], 2.93 µM; in [4] it was 2.43 µM; in [5], 5.99 µM. Also, the GI50 was 4.23 µM in assay [6], 3.68 µM in [7] and 2.92 µM in assay [8]. The TGI was more than 100 µM in [1]; 3.42 µM in assay [3]; 8.51 µM in [9]; more than 100 µM in assay [10]; 8.71 µM in assay [4]; more than 100 µM in assay [5]. Besides, the TGI is more than 100 µM in assay [6], more than 100 µM in [7] and 46 µM in assay [8].
Consider `COc1nc(OC)c2c(=O)oc(-c3ccccc3)cc2n1`, for which the TGI in [1], in assay [4], in assay [5], in assay [6], in [7] and in assay [8] was more than 100 µM each time.
As to `O=c1cc2n(c(=O)[nH]1)C1OC(C(O)C1O)[C@@H]2CCO` (stereo partly specified), the TGI in [2], in assay [3], in [4], in assay [5], in assay [6] and in [7] was more than 100 µM throughout. The compound further displayed a TGI in [8] of more than 100 µM.
For the compound `CC(NC(=O)c1ccccc1)C(=O)N(Cc1ccccc1)Cc1ccccc1` (stereo unspecified), the TGI in [1] was 66 µM; in [3], 47.7 µM; in assay [4], 60.4 µM; in assay [5], more than 100 µM; in assay [6] it was more than 100 µM; in assay [7], more than 100 µM. For the same compound, in assay [8], the TGI was 91.7 µM.
On to `O=[N+]([O-])c1ccccc1S(=O)c1ccccc1` (stereo unspecified), for which the TGI in assay [1], in assay [2], in assay [3], in assay [4], in assay [5] and in assay [6] was more than 100 µM throughout. Further, the TGI in assay [7] and in [8] was more than 100 µM each time.
For the compound `O=C1CCC2(c3ccc(F)cc3)Nc3ccccc3N12` (stereo unspecified), the TGI in assay [2], in assay [3], in assay [4], in assay [5], in [6] and in assay [7] was more than 100 µM throughout. Besides, the TGI in [8] is more than 100 µM.
In the case of `Cc1cccc(C)c1NC(=O)CCC(=O)NNC(=O)c1cc(O)c2ccccc2c1`, the TGI was more than 100 µM in assay [1]; 95.2 µM in [2]; more than 100 µM in [3]; 88 µM in assay [4]; more than 100 µM in assay [5]; more than 100 µM in assay [6]. Further, the TGI was 78.2 µM in assay [7] and more than 100 µM in [8].
Regarding `COC(=O)OCC1OC(N2C(=O)NC(=O)C(I)C2N=[N+]=[N-])CC1OC(=O)OC` (stereo unspecified), the TGI in assay [1], in assay [2], in assay [3], in assay [4], in [5] and in assay [6] was more than 100 µM each time. For the same compound, the TGI in assay [7] and in assay [8] was more than 100 µM in each case.
As to `O=C1C=C(SCCO)C(=O)c2ccccc21`, the GI50 in [1] is 1.8 µM; in assay [2] it was 0.451 µM; in assay [3] it was 1.53 µM; in [10], 1.34 µM; in [4], 1.49 µM; in [5] it was 4.92 µM. The GI50 in assay [6] was 1.92 µM; in [7], 1.65 µM; in assay [8] it was 1.76 µM. Further, the TGI in assay [1] stood at 3.68 µM; in assay [2] it was 2.46 µM; in [3] it was 3.26 µM; in [10], 2.65 µM; in assay [4], 3.42 µM; in assay [5], 21.4 µM. The values for the TGI in assay [6], in assay [7] and in assay [8] were 5.07 µM, 3.03 µM and 3.25 µM, respectively.
Turning to `[Cu+2].[Cu+2].[O-]c1ccccc1C=Nc1ccccc1[O-].[O-]c1ccccc1C=Nc1ccccc1[O-]`, the GI50 is 2.47 µM in assay [1]; 2.52 µM in assay [2]; 4.12 µM in assay [3]; 1.96 µM in assay [4]; 17.7 µM in assay [5]; 11.8 µM in assay [6]. In addition, the GI50 in assay [7] is 13.2 µM. The TGI came out at 6.55 µM in assay [1]; 7.24 µM in assay [2]; 17.5 µM in assay [3]; 4.85 µM in assay [4]; 32.6 µM in [5]; 24.2 µM in assay [6]. Besides, the TGI in assay [7] came to 25.9 µM.
On to `CN(C)CCC1(C2=CCCC2)CC/C(=C\c2ccc3c(c2)OCO3)C1=O` (stereo unspecified), for which the TGI in assay [1] came to 26.9 µM; in [2], 37 µM; in [4], 33 µM; in assay [5], 29.2 µM; in [6], 28.1 µM; in assay [7], 30.2 µM. In assay [8], the TGI is 29 µM.
Take `CCc1nc2c(O)ccc(O)c2nc1C`: the TGI was 20.9 µM in assay [1]; more than 21.7 µM in [2]; 29.9 µM in [3]; 33.4 µM in assay [4]; 33.5 µM in assay [5]; 34.2 µM in [6]. Moreover, the TGI came to 31.4 µM in assay [7] and 30.2 µM in assay [8].
On to `Cc1c(/C=C2\CC/C(=C\c3[nH]c(C(=O)OC(C)(C)C)c(C)c3C)C2=O)[nH]c(C(=O)OC(C)(C)C)c1C`, for which the TGI in assay [1], in assay [2], in assay [3], in assay [4], in [5] and in [6] was more than 100 µM each time. In addition, the TGI in assay [7] and in [8] was more than 100 µM each time.
As for `O=C(/C=C/c1ccc(OCCCCCCCCCCOc2ccc(/C=C/C(=O)c3ccc(Cl)cc3)cc2)cc1)c1ccc(Cl)cc1`, the TGI in assay [2], in assay [3], in assay [4], in assay [5], in [6] and in [7] was more than 100 µM in each case. For the same compound, the TGI in assay [8] was more than 100 µM.
As for `COc1cc2c(-c3nc4cc(Cl)c(F)cc4s3)cc(=O)oc2c(C)c1OC`, the GI50 in [10] is 1.77 µM; in assay [5], 1.8 µM; in assay [6] it was 1.14 µM; in assay [7] it was 0.183 µM; in [8], 1.29 µM. In addition, the TGI worked out at 3.76 µM in assay [10]; 3.39 µM in [5]; 3.24 µM in [6]; 0.379 µM in [7]; 2.66 µM in assay [8].
Regarding `CN(C)CCNC(=O)c1ccc2ccc3cccnc3c2n1`, the TGI was 27.2 µM in [1]; more than 84 µM in assay [2]; 49.8 µM in assay [3]; 42.2 µM in assay [4]; 47.8 µM in [5]; 54.5 µM in assay [6]. Moreover, the TGI was 33.7 µM in assay [7] and more than 88.8 µM in assay [8].
On to `CC(=O)[CH-]C(=O)c1ccccc1.CC(=O)[CH-]C(=O)c1ccccc1.[Nd+3].[OH-].[OH3+]`, for which the GI50 in assay [1], in [2], in [3], in assay [4], in assay [6] and in [7] was more than 100 µM in each case. The GI50 in assay [8] is more than 100 µM. Besides, the TGI in assay [1], in assay [2], in [3], in [4], in assay [6] and in [7] was more than 100 µM each time. In addition, the TGI in [8] is more than 100 µM.
Take `CS(=O)(=O)C1S(=O)(=O)OCCOS1(=O)=O`: the TGI in [1], in assay [2], in assay [3], in [4], in assay [5] and in [6] was more than 100 µM in each case. Besides, the TGI in assay [7] and in [8] was more than 100 µM each time.
In the case of `COc1cc2c(cc1OC)C1c3ccccc3C(C#N)(C2)N(C(=O)c2ccccc2)C1O` (stereo unspecified), the TGI in [1], in assay [2], in [3], in [4], in [5] and in [6] was more than 100 µM each time. Further, the TGI in assay [7] and in [8] was more than 100 µM in each case.
